Peptide text beside a SMILES is read from it. * marks the point of attachment. Cbz = O=C(OCc1ccccc1)*
What was measured:
Assay type in all cases: cell-based, mouse
[1] = tested on: iNOS degradation in Ssb-1T/+ and Ssb-2T/+ BMDM; experiment: iNOS degradation post-wash in SSB transgenic BMDM (Western blot); details: MG-132 10 μM post-wash
Protocol: FIG. 11. SSB-1 and SSB-2 regulation of iNOS expression is dependent on the proteasome. BMDM from (A) littermate controls (Ssb-1^+/+) and SSB-1-transgenic mice (Ssb-1^T/+) or (B) Ssb-1^+/+ and SSB-2-transgenic mice (Ssb-2^T/+) were incubated with IFNγ and LPS (20 ng/ml) for 16 h, washed, replenished with fresh medium with (+) or without (−) the proteasomal inhibitor MG-132 (10 μM) and lysed at the indicated times post-wash. Proteins were separated by SDS-PAGE and analysed by Western blot using anti-iNOS antibodies. Equivalent protein loading was confirmed by stripping and reprobing the membrane with anti-tubulin antibodies.
Bone marrow-derived macrophages were generated as described and re-plated at 1.0×10^6 cells/well on 6-well plates (Costar) in DME containing 10% FCS and 20% L-cell conditioned media. Cells were incubated with IFNγ and LPS as described, and lysed in KALB lysis buffer (Nicholson et al., 1995) containing protease inhibitors (Complete Cocktail tablets, Roche), 1 mM phenylmethylsulphonyl fluoride, 1 mM Na3VO4 and 1 mM NaF. Proteins were immunoprecipitated using anti-Flag antibody conjugated to Sepharose (M2; EASTMAN KODAK). Proteins were separated by sodium dodecyl sulphatepolyacrylamide gel electrophoresis (SDS-PAGE) under reducing conditions and electrophoretically transferred to Biotrace PVDF membranes (Pall Corp. Ann Arbor, Mich.). […]

Spsb1 mRNA = experiment: Spsb1 knockdown in BMDM by Q-PCR; details: 10 ng/ml LPS 4 h, compared to non-sense control shRNA, p<0.0001
Protocol: Bone marrow-derived macrophages were generated as described and replated at 1.0×10^6 cells/well on 6-well plates (Costar) in DME containing 10% FCS and 20% L-cell conditioned media. The following day, triplicate cultures were incubated with murine IFNγ (10 ng/ml) and LPS (20 ng/ml), unless otherwise indicated. Total cellular RNA was isolated using the RNeasy kit (QIAGEN, Valencia, Calif.) and first strand cDNA synthesis performed using Superscript II RNASE H— reverse transcriptase (Invitrogen, Carlsbad, Calif.) according to the manufacturer's instructions. Real-time PCR was performed on an ABI Prism 7900HT sequence detection system (Applied Biosystems, Foster City, Calif.). Cycling conditions were as follows: initial denaturation (95° C. for 15 min), followed by 40 cycles of 94° C. for 15 s, 50° C. (SSB-1, -4), 60° C. (SSB-2, -3) or 49° C. (GAPDH) for 30 s and 72° C. for 15 s with a transition rate of 20° C./s and a single fluorescence measurement, melting curve program (60° C.-95° C., with a heating rate of 0.1° C./s and continuous fluorescence measurement) and a final cooling step to 40° C. All PCR reactions were performed using the QuantiTect SYBR Green PCR Kit (QIAGEN) in 10 μl reactions containing […] of forward and reverse primers, 5 μl of QuantiTect Master Mix and 4 μl of cDNA (diluted 1 in 5). […]

NO production in BMDM = experiment: Nitric oxide production in shRNA infected BMDM (Griess assay)
Protocol: As a measure of nitric oxide production, 100 μl of culture supernatants were assayed for nitrite by reaction with 10 μl of Griess reagent A (1% sulfanilamide in 5% phosphoric acid) for 10 min at room temperature, followed by the addition of 10 μl Griess reagent B [0.14% N-(1-naphthyl)ethylenediamine dihydrochloride], and nitrite content determined essentially as described (Scott et al., 2000).
(§1) Oligonucleotides targeting SPSB 1 ([…] (SEQ ID NO:84)) were designed as previously described (27). shRNAmir constructs were created by annealing the oligonucleotides in 5× annealing buffer (0.5 M potassium acetate, 0.01 M magnesium acetate and 0.15 M HEPES pH 7.4) for 5 min at 95° C., followed by incubation for 10 min at 80° C. and a 5-7 h ramp from 80° C. to 4° C. (reducing by 0.5° C. every 2.5 min). Annealed oligonucleotides were subsequently subcloned into the LMP vector (Dickins et al; 2005 & 2006). Non-sense shRNAmir and luciferase control constructs in the LMS vector were a kind gift from Dr. Marnie Blewitt (Majewski et al, 2008) and Dr Ross Dickins (unpublished data) respectively. To create retrovirus, 293T cells were transfected as described previously (Majewski et al, 2008). The medium was replaced with DMEM containing 10% FBS and 20% L-cell conditioned medium 24 h after transfection and viral supernatants harvested the following day. Total bone marrow was collected and non-adherent haematopoietic cells were harvested by centrifugation and red blood cells removed by washing in red cell removal buffer (154.4 mM NH4Cl, 0.1 mM EDTA, 12 mM. NaHCO3). Retroviral supernatants were applied to culture dishes pre-treated with 32 μg/ml RetroNectin (Takara Biosciences, Shiga, Japan) and centrifuged for 1 h at 4000 g at 4° C. Bone marrow cells were infected by co-culturing with the virus in the presence of 4 μg/ml 30 polybrene-containing medium for 24 h. […]
Using a Griess assay, NO production was measured in response to 20 ng/ml LPS and 25 μg/ml PolyIC in BMDM infected with non-sense or Spsb1 shRNA at 24 h and 48 h. […]

iNOS protein in BMDM = experiment: iNOS expression in shRNA infected BMDM (Western blot)
Protocol: Bone marrow-derived macrophages were generated as described and re-plated at 1.0×10^6 cells/well on 6-well plates (Costar) in DME containing 10% FCS and 20% L-cell conditioned media. Cells were incubated with IFNγ and LPS as described, and lysed in KALB lysis buffer (Nicholson et al., 1995) containing protease inhibitors (Complete Cocktail tablets, Roche), 1 mM phenylmethylsulphonyl fluoride, 1 mM Na3VO4 and 1 mM NaF. Proteins were immunoprecipitated using anti-Flag antibody conjugated to Sepharose (M2; EASTMAN KODAK). Proteins were separated by sodium dodecyl sulphatepolyacrylamide gel electrophoresis (SDS-PAGE) under reducing conditions and electrophoretically transferred to Biotrace PVDF membranes (Pall Corp. Ann Arbor, Mich.). Membranes were blocked overnight in 10% w/v skim milk and incubated with primary antibody for 2 h. Antibody binding was visualized with either peroxidase-conjugated goat anti-rat immunoglobulin (Southern Biotech) or peroxidase-conjugated sheep anti-rabbit immunoglobulin (Chemicon, Melbourne, Australia), and the enhanced chemiluminescence (ECL) system (Amersham, Little Chalfont, Buckinghamshire, UK). To re-blot, the membrane was first stripped of antibodies in 0.1 M glycine, pH 2.9.
as §1, with “C.” for “C. Bone marrow cells were infected by co-culturing with the virus in the presence of 4 μg/ml 30 polybrene-containing medium for 24 h.”
To analyse the kinetics of iNOS induction in BMDM infected with an Spsb1 shRNA construct cells were stimulated with 100 ng/ml LPS or 25 μg/ml PolyIC for various times, then lysed and iNOS expression analysed by Western blot. […]

Compound | effect on enhanced iNOS degradation [1] | Spsb1 expression (Spsb1 mRNA) | NO production (NO production in BMDM; 24 h, LPS and PolyIC, compared to non-sense) | NO production (NO production in BMDM; 48 h, LPS, p=0.0446) | NO production (NO production in BMDM; 48 h, PolyIC) | kinetics of iNOS clearance (iNOS protein in BMDM; 20 ng/ml LPS or 25 μg/ml PolyIC overnight, stimulus removed) | iNOS amount in degradation experiment (iNOS protein in BMDM; 20 ng/ml LPS or 25 μg/ml PolyIC overnight, stimulus removed, compared to non-sense) | iNOS protein amount during induction timecourse (iNOS protein in BMDM; 100 ng/ml LPS or 25 μg/ml PolyIC) | time of first observed iNOS expression post-treatment (iNOS protein in BMDM; 100 ng/ml LPS or 25 μg/ml PolyIC, non-sense shRNA control 8 h) [h]
CC(C)C[C@@H](C=O)NC(=O)[C@H](CC(C)C)NC(=O)[C@H](CC(C)C)NC(=O)OCc1ccccc1 [MG-132] (Cbz-Leu-Leu-Leu-aldehyde) | abrogated | – | – | – | – | – | – | – | –
Spsb1 shRNA: retroviral shRNAmir construct targeting SPSB1, CCAGATGCAGAGAATAAACTA (SEQ ID NO:84), in LMP vector | – | significantly reduced | increase | significant increase | increase | essentially unchanged | increased amount of iNOS | more iNOS protein | 6
